From ChEMBL document CHEMBL4251633, “Design, synthesis, biological evaluation and cocrystal structures with tubulin of chiral β-lactam bridged combretastatin A-4 analogues as potent antitumor agents” (Eur J Med Chem, 2018)

What was measured:
HeLa = assay: Antiproliferative activity against human HeLa cells after 48 hrs by MTT assay; type: functional, cell-based
A2780 = assay: cells; details: Homo sapiens, A2780, 48 h
Description: Antiproliferative activity against human A2780 cells after 48 hrs by MTT assay

SK-OV-3 = assay: Antiproliferative activity against human SKOV3 cells after 48 hrs by MTT assay; details: SK-OV-3, 48 h
MDA-MB-231 = assay: Antiproliferative activity against human MDA-MB-231 cells after 48 hrs by MTT assay; type: functional, cell-based; details: MDA-MB-231, 48 h

| SMILES | IC50 (HeLa) [nM] | IC50 (A2780) [nM] | IC50 (SK-OV-3) [nM] | IC50 (MDA-MB-231) [nM] |
| --- | --- | --- | --- | --- |
| COc1ccc([C@H]2[C@@H](OC(=O)CCC(=O)O)C(=O)N2c2cc(OC)c(OC)c(OC)c2)cc1O | 178 | 79 | 210 | 102 |
| C=C1C(=O)N(c2cc(OC)c(OC)c(OC)c2)[C@H]1c1ccc(OC)c(OCCC)c1 | 6890 | 3420 | 5260 | 5620 |
| COc1ccc([C@H]2[C@H](Br)C(=O)N2c2cc(OC)c(OC)c(OC)c2)cc1O | 13 | 8 | 9 | 10 |
| COc1ccc([C@@H]2CC(=O)N2c2cc(OC)c(OC)c(OC)c2)cc1O | 30 | 22 | 24 | 28 |
| C=CC(=O)Nc1cc([C@H]2C(=C)C(=O)N2c2cc(OC)c(OC)c(OC)c2)ccc1OC | 125 | 65 | 63 | 34 |
| C=C1C(=O)N(c2cc(OC)c(OC)c(OC)c2)[C@H]1c1ccc(OC)c(OCc2ccccc2)c1 | > 20000 | > 20000 | > 20000 | > 20000 |
| C=C1C(=O)N(c2cc(OC)c(OC)c(OC)c2)[C@H]1c1cccc(O)c1 | 15000 | 10500 | 14500 | 6640 |
| C=C1C(=O)N(c2cc(OC)cc(OC)c2)[C@H]1c1ccc(OC)c(O)c1 | 295 | 112 | 175 | 125 |
| C=C1C(=O)N(c2cc(OC)c(OC)c(OC)c2)[C@H]1c1ccc(OC)c(OS(=O)(=O)c2ccc(C)cc2)c1 | 17800 | > 20000 | 12100 | 12800 |
| COc1ccc([C@H]2/C(=C/c3ccc(C(C)(C)C)cc3)C(=O)N2c2cc(OC)c(OC)c(OC)c2)cc1O | > 20000 | > 20000 | > 20000 | > 20000 |
| C=C1C(=O)N(c2cc(OC)c(OC)c(OC)c2)[C@H]1c1ccc(OC)c(N)c1 | 32 | 31 | 36 | 40 |
| C=C1C(=O)N(c2cc(OC)c(OC)c(OC)c2)[C@H]1c1ccc(OC)cc1 | > 20000 | > 20000 | > 20000 | > 20000 |
| COc1ccc([C@H]2/C(=C/c3ccccc3)C(=O)N2c2cc(OC)c(OC)c(OC)c2)cc1O | 4730 | 2540 | 2990 | 3160 |
| C=C1C(=O)N(c2cc(OC)c(OC)c(OC)c2)[C@H]1c1ccc(C)cc1 | 209 | 127 | 265 | 193 |
| C=C1C(=O)N(c2cc(OC)c(OC)c(OC)c2)[C@H]1c1ccccc1 | > 20000 | > 20000 | > 20000 | > 20000 |
| C=C1C(=O)N(c2cc(OC)c(OC)c(OC)c2)[C@H]1c1ccc(OC)c(O[Si](C)(C)C(C)(C)C)c1 | 657 | 287 | 414 | 560 |
| C=C1C(=O)N(c2cc(OC)c(OC)c(OC)c2)[C@H]1c1ccc(OC)c(OC)c1 | 3160 | 854 | 2260 | 1020 |
| C=C1C(=O)N(c2cc(OC)c(OC)c(OC)c2)[C@H]1c1ccc(OC)c(Cl)c1 | 371 | 316 | 341 | 512 |
| C=C1C(=O)N(c2cc(OC)c(OC)c(OC)c2)[C@H]1c1ccc(OC)c(OC(C)C)c1 | > 20000 | 11300 | 18000 | 15900 |
| C=C1C(=O)N(c2cc(OC)c(OC)c(OC)c2)[C@H]1c1cc(OC)c(OC)c(OC)c1 | 547 | 215 | 365 | 784 |
| C=C1C(=O)N(c2ccccc2)[C@H]1c1ccccc1 | > 20000 | > 20000 | > 20000 | > 20000 |
| C=C1C(=O)N(c2ccc(OC)cc2)[C@H]1c1ccc(OC)c(O)c1 | > 20000 | > 20000 | > 20000 | > 20000 |
| C=C1C(=O)N(c2cccc(OC)c2)[C@H]1c1ccc(OC)c(O)c1 | 2170 | 677 | 1390 | 1370 |

Now from value to compound:

| IC50 (HeLa) [nM] | IC50 (A2780) [nM] | IC50 (SK-OV-3) [nM] | IC50 (MDA-MB-231) [nM] | SMILES |
| --- | --- | --- | --- | --- |
| 33 | 15 | 83 | 28 | COc1ccc([C@H]2[C@H](n3cc(CO)nn3)C(=O)N2c2cc(OC)c(OC)c(OC)c2)cc1O |
| > 20000 | 17700 | > 20000 | > 20000 | COC[C@@]1(OC)C(=O)N(c2cc(OC)c(OC)c(OC)c2)[C@H]1c1ccc(OC)c(O)c1 |
| 2030 | 854 | 1140 | 958 | C=C1C(=O)N(c2cc(OC)c(OC)c(OC)c2)[C@H]1c1ccc(OC)c(OCC)c1 |
| 31 to 63 | 31 to 63 | 31 to 63 | 31 to 63 | COc1ccc([C@H]2[C@@H](C)C(=O)N2c2cc(OC)c(OC)c(OC)c2)cc1O |
| 1790 | 1220 | 2210 | 1960 | COc1ccc([C@H]2[C@@H](OC)C(=O)N2c2cc(OC)c(OC)c(OC)c2)cc1O |
| 24 | 27 | 45 | 47 | COc1ccc([C@H]2[C@H](NC(=O)c3ccccc3)C(=O)N2c2cc(OC)c(OC)c(OC)c2)cc1O |
| 116 | 81 | 104 | 133 | C=C1C(=O)N(c2cc(OC)c(OC)c(OC)c2)[C@H]1c1ccc(OC)c(OC(C)=O)c1 |
| 3920 | 5750 | 3270 | 5140 | COc1ccc([C@@H]2[C@H](C)C(=O)N2c2cc(OC)c(OC)c(OC)c2)cc1O |
| 35 | 21 | 8 | 17 | COc1ccc([C@H]2[C@H](C)C(=O)N2c2cc(OC)c(OC)c(OC)c2)cc1N |
| 44 | 35 | 8 | 27 | COc1ccc([C@H]2[C@H](CO)C(=O)N2c2cc(OC)c(OC)c(OC)c2)cc1N |
| 2100 | 1540 | 2070 | 2320 | COc1ccc([C@@H]2N(c3cc(OC)c(OC)c(OC)c3)C(=O)[C@]2(O)CO)cc1O |
| 215 | 81 | 59 | 63 | COc1ccc([C@H]2[C@@H](C)C(=O)N2c2cc(OC)c(OC)c(OC)c2)cc1N |
| 131 | 121 | 136 | 112 | C=C1C(=O)N(c2cc(OC)c(OC)c(OC)c2)[C@H]1c1ccc(OC)c(F)c1 |
| 328 | 327 | 54 | 107 | COc1ccc([C@H]2[C@@H](CO)C(=O)N2c2cc(OC)c(OC)c(OC)c2)cc1N |
| 192 | 164 | 231 | 254 | COc1ccc([C@H]2[C@H](NS(C)(=O)=O)C(=O)N2c2cc(OC)c(OC)c(OC)c2)cc1O |
| 807 | 771 | 650 | 1080 | COc1ccc([C@@H]2[C@@H](C)C(=O)N2c2cc(OC)c(OC)c(OC)c2)cc1O |
| 35 | 33 | 32 | 47 | COc1ccc([C@H]2[C@H](NC(C)=O)C(=O)N2c2cc(OC)c(OC)c(OC)c2)cc1O |
